Measurements reported in the NIST ThermoML archive (doi:10.1016/j.jct.2008.06.017).

Columns and labels:
[1] = xn = mol fraction of the nth substance listed; conditions: Liquid, Vibrating tube method
[2] = Liquid, Vibrating tube method

C=C(C)C(=O)OCCCC [butyl 2-methyl-2-propenoate] + COC(=O)OC
[1]
Conditions | mass density [kg/m3]
293.15 K, x2 = 0 | 895.231
293.15 K, x2 = 0.0253 | 897.401
293.15 K, x2 = 0.0496 | 899.525
293.15 K, x2 = 0.1 | 904.247
293.15 K, x2 = 0.1512 | 909.195
293.15 K, x2 = 0.2002 | 914.234
293.15 K, x2 = 0.2501 | 919.652
293.15 K, x2 = 0.3 | 925.514
293.15 K, x2 = 0.3496 | 931.664
293.15 K, x2 = 0.4002 | 938.381
293.15 K, x2 = 0.45 | 945.36
293.15 K, x2 = 0.4998 | 952.885
293.15 K, x2 = 0.5499 | 960.906
293.15 K, x2 = 0.6 | 969.499
293.15 K, x2 = 0.6499 | 978.774
293.15 K, x2 = 0.7003 | 988.865
293.15 K, x2 = 0.7501 | 999.691
293.15 K, x2 = 0.7998 | 1011.24
293.15 K, x2 = 0.8502 | 1024.04
293.15 K, x2 = 0.8997 | 1037.82
293.15 K, x2 = 0.9499 | 1053.1
293.15 K, x2 = 0.9747 | 1061.18
303.15 K, x2 = 0 | 885.991
303.15 K, x2 = 0.0255 | 888.128
303.15 K, x2 = 0.0511 | 890.378
303.15 K, x2 = 0.0984 | 894.561
303.15 K, x2 = 0.1496 | 899.445
303.15 K, x2 = 0.1998 | 904.542
303.15 K, x2 = 0.251 | 909.93
303.15 K, x2 = 0.3 | 915.538
303.15 K, x2 = 0.3498 | 921.462
303.15 K, x2 = 0.4002 | 927.876
303.15 K, x2 = 0.4505 | 934.768
303.15 K, x2 = 0.5001 | 942.022
303.15 K, x2 = 0.5497 | 949.757
303.15 K, x2 = 0.6003 | 958.326
303.15 K, x2 = 0.6507 | 967.581
303.15 K, x2 = 0.7003 | 977.274
303.15 K, x2 = 0.7503 | 987.854
303.15 K, x2 = 0.8003 | 999.303
303.15 K, x2 = 0.8497 | 1011.72
303.15 K, x2 = 0.8997 | 1025.31
303.15 K, x2 = 0.95 | 1040.3
303.15 K, x2 = 0.9746 | 1048.26
313.15 K, x2 = 0 | 876.19
313.15 K, x2 = 0.0248 | 878.23
313.15 K, x2 = 0.0506 | 880.426
313.15 K, x2 = 0.1009 | 884.856
313.15 K, x2 = 0.1505 | 889.457
313.15 K, x2 = 0.2003 | 894.361
313.15 K, x2 = 0.2512 | 899.681
313.15 K, x2 = 0.3005 | 905.153
313.15 K, x2 = 0.3502 | 910.961
313.15 K, x2 = 0.4009 | 917.353
313.15 K, x2 = 0.4509 | 924.075
313.15 K, x2 = 0.4999 | 931.103
313.15 K, x2 = 0.5506 | 938.855
313.15 K, x2 = 0.6 | 947.003
313.15 K, x2 = 0.6502 | 955.954
313.15 K, x2 = 0.7002 | 965.503
313.15 K, x2 = 0.7503 | 975.976
313.15 K, x2 = 0.7999 | 987.089
313.15 K, x2 = 0.8501 | 999.417
313.15 K, x2 = 0.8998 | 1012.69
313.15 K, x2 = 0.9498 | 1027.3
313.15 K, x2 = 0.9751 | 1035.15

COC(=O)OC [dimethyl carbonate] + C=C(C)C(=O)OCCCC
[1], x1 = 1
Conditions | mass density [kg/m3]
293.15 K | 1069.79
303.15 K | 1056.75
313.15 K | 1043.37

COC(=O)OC [dimethyl carbonate]
[2]
Conditions | mass density [kg/m3]
293.15 K | 1069.79
303.15 K | 1056.75
313.15 K | 1043.37

C=CCOC(=O)C(=C)C [2-propenyl 2-methylpropenoate] + COC(=O)OC
[1]
Conditions | mass density [kg/m3]
293.15 K, x2 = 0 | 932.965
293.15 K, x2 = 0.0254 | 935.07
293.15 K, x2 = 0.0498 | 937.164
293.15 K, x2 = 0.1006 | 941.619
293.15 K, x2 = 0.1507 | 946.22
293.15 K, x2 = 0.2 | 950.913
293.15 K, x2 = 0.2505 | 955.966
293.15 K, x2 = 0.2999 | 961.134
293.15 K, x2 = 0.3499 | 966.623
293.15 K, x2 = 0.4005 | 972.4
293.15 K, x2 = 0.449 | 978.208
293.15 K, x2 = 0.5 | 984.616
293.15 K, x2 = 0.5499 | 991.215
293.15 K, x2 = 0.5991 | 998.042
293.15 K, x2 = 0.6502 | 1005.49
293.15 K, x2 = 0.7 | 1013.17
293.15 K, x2 = 0.7502 | 1021.34
293.15 K, x2 = 0.8001 | 1029.9
293.15 K, x2 = 0.8499 | 1039
293.15 K, x2 = 0.9002 | 1048.71
293.15 K, x2 = 0.9499 | 1058.87
293.15 K, x2 = 0.975 | 1064.27
303.15 K, x2 = 0 | 922.525
303.15 K, x2 = 0.0253 | 924.591
303.15 K, x2 = 0.0501 | 926.656
303.15 K, x2 = 0.101 | 931.041
303.15 K, x2 = 0.15 | 935.458
303.15 K, x2 = 0.1999 | 940.145
303.15 K, x2 = 0.2505 | 945.101
303.15 K, x2 = 0.2999 | 950.165
303.15 K, x2 = 0.3499 | 955.527
303.15 K, x2 = 0.4003 | 961.195
303.15 K, x2 = 0.447 | 966.662
303.15 K, x2 = 0.5001 | 973.205
303.15 K, x2 = 0.5501 | 979.68
303.15 K, x2 = 0.5994 | 986.387
303.15 K, x2 = 0.6502 | 993.661
303.15 K, x2 = 0.7001 | 1001.19
303.15 K, x2 = 0.7503 | 1009.19
303.15 K, x2 = 0.8001 | 1017.58
303.15 K, x2 = 0.8499 | 1026.47
303.15 K, x2 = 0.9002 | 1035.99
303.15 K, x2 = 0.9499 | 1046
303.15 K, x2 = 0.975 | 1051.3
313.15 K, x2 = 0 | 912.072
313.15 K, x2 = 0.0247 | 914.028
313.15 K, x2 = 0.0499 | 916.075
313.15 K, x2 = 0.1002 | 920.29
313.15 K, x2 = 0.1496 | 924.626
313.15 K, x2 = 0.1997 | 929.2
313.15 K, x2 = 0.2495 | 933.94
313.15 K, x2 = 0.2999 | 938.979
313.15 K, x2 = 0.3502 | 944.239
313.15 K, x2 = 0.3999 | 949.688
313.15 K, x2 = 0.4499 | 955.431
313.15 K, x2 = 0.4997 | 961.436
313.15 K, x2 = 0.5503 | 967.862
313.15 K, x2 = 0.6001 | 974.504
313.15 K, x2 = 0.6497 | 981.462
313.15 K, x2 = 0.7001 | 988.916
313.15 K, x2 = 0.7498 | 996.664
313.15 K, x2 = 0.7998 | 1004.93
313.15 K, x2 = 0.85 | 1013.71
313.15 K, x2 = 0.8998 | 1023
313.15 K, x2 = 0.9498 | 1032.83
313.15 K, x2 = 0.9746 | 1037.94
